The target of this assay is human orexin type 2 receptor (hOX2R) (Homo sapiens (Human), UniProt O43614). The experiment in a line: Measurement of orexin type 2 receptor agonist activity (Experimental Example 2-1, FLIPR TETRA, intracellular Ca2+). To be noted: CHO dhfr- cells expressing hOX2R; for Emax: read-out: Emax (%); for Emax at 30 µM: value at 30 uM concentration, orexin B as full agonist = 100%. Format: cell-based. The source says: To obtain a cell clone stably expressing human orexin type 2 receptor, human orexin type 2 receptor cDNA was inserted into pcDNA3.1(+) plasmid vector (Invitrogen), and a plasmid DNA for expression of human orexin type 2 receptor (pcDNA3.1(+)/hOX2R) was cloned. The plasmid DNA was introduced into CHO-dhfr cell by an electroporation method, and human orexin type 2 receptor expressing clone cells were obtained by limiting dilution method by using G418 drug resistance as a selection marker.
Chinese hamster ovary (CHO) dhfr-cells forcibly expressing human orexin type 2 receptor (hOX2R) were seeded in each well of Black clear bottom plate (384 wells) (Becton, Dickinson and Company) by 10,000 cells, and cultured for 16 hr in an MEM-alpha (Nikken-Bio Co., Ltd.) medium containing 100 U/ml penicillin, 100 μg/ml streptomycin, […] G418 (all above Invitrogen), and 10% fetal calf serum (Thermo), under the conditions of 37° C., 5% CO2. […] A test compound was dissolved in dimethyl sulfoxide to 10 mM, and then diluted with assay buffer 2 (20 mM HEPES, Hanks' balanced salt solution (Invitrogen), 0.1% bovine serum albumin). For the reaction, a test compound solution (10 μL) was added using Fluorescent Imaging Plate Reader TETRA (FLIPR TETRA; manufactured by Molecular Devices), a fluorescence value (excitation wavelength 488 nm, measurement wavelength 570 nm) of each well was measured every one second for 1 min, and the agonist activity was determined using the area of the fluorescence value as an indicator of intracellular Ca^2+ concentration.

[1] abbreviates: agonist activity, 10 nM human orexin B = 100%.

Chain of human orexin type 2 receptor (hOX2R) (O43614 whole entry): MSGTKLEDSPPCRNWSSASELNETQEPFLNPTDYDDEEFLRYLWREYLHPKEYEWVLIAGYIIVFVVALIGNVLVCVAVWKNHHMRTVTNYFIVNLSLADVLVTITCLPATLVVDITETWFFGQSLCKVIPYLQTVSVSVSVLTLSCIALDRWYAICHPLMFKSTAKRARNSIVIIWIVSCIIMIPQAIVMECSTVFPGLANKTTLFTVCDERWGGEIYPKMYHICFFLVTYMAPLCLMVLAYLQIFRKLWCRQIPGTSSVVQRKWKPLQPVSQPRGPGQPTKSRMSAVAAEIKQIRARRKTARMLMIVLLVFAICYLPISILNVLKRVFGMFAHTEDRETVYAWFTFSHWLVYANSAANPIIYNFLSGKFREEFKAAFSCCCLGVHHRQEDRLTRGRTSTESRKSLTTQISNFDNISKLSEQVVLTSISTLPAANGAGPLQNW

The term EC50 denotes the concentration that produces a half-maximal response. A higher EC50 goes with lower potency in that assay. One may read the Emax as the greatest response seen or fitted, relative to the assay's reference. On to `CS(=O)(=O)N[C@H]1CCCN(C(=O)C2CC2)[C@H]1COC1CCN(c2cc(F)ccc2Cl)CC1` (relative stereo) [Example 212, N-(cis-2-(((1-(2-chloro-5-fluorophenyl)piperidin-4-yl)oxy)methyl)-1-(cyclopropylcarbonyl)piperidin-3-yl)methanesulfonamide], for which, under “FLIPR TETRA, Fluo-4AM”, the EC50 was determined as 2200 nM and the Emax was 89%.

As for `CC(=O)N1CCC[C@H](NS(C)(=O)=O)[C@@H]1CO[C@H]1CC[C@@H](c2c(C)cccc2C)CC1` (relative stereo) [Example 321, N-(cis-1-acetyl-2-(((cis-4-(2,6-dimethylphenyl)cyclohexyl)oxy)-methyl)piperidin-3-yl)methanesulfonamide], where the note is “FLIPR TETRA, Fluo-4AM”, the EC50 turned out to be 2200 nM and the maximal effect (Emax) came to 37%.

With `CCNC(=O)N1CCC[C@H](NS(C)(=O)=O)[C@@H]1CO[C@H]1CC[C@@H](c2ccc(F)cc2F)CC1` (relative stereo) [Example 146, cis-2-(((cis-4-(2,4-difluorophenyl)cyclohexyl)oxy)methyl)-N-ethyl-3-((methylsulfonyl)amino)piperidine-1-carboxamide], where the note is “FLIPR TETRA, Fluo-4AM”, the midpoint of the response, the EC50, lay at 2.5 nM and the Emax was found to be 100%.

As for `COC(=O)N1CCC[C@H](NS(C)(=O)=O)[C@@H]1CO[C@H]1CC[C@@H](c2ccccc2OC)CC1` [Example 277, methyl (2R,3S)-2-(((cis-4-(2-methoxyphenyl)cyclohexyl)oxy)methyl)-3-((methylsulfonyl)amino)piperidine-1-carboxylate], for the setting “FLIPR TETRA, Fluo-4AM”, the midpoint of the response, the EC50, lay at 2.9 nM and the Emax worked out at 95%.

With `CC(C)OC(=O)N1CCC[C@H](NS(C)(=O)=O)[C@@H]1CO[C@H]1CCN(c2ncccn2)C[C@H]1F` (relative stereo) [Example 342, isopropyl cis-2-(((cis-3-fluoro-1-(pyrimidin-2-yl)piperidin-4-yl)oxy)methyl)-3-((methylsulfonyl)amino)piperidine-1-carboxylate], for the setting “FLIPR TETRA, Fluo-4AM”, the concentration giving a half-maximal response (EC50) stood at 30 nM and the Emax came out at 104%.

In the case of `CS(=O)(=O)N[C@H]1CCCN(C(=O)CC(F)(F)F)[C@H]1CO[C@H]1CC[C@@H](c2ccccc2)CC1` [Example 306, N-((2R,3S)-2-(((cis-4-phenylcyclohexyl)oxy)methyl)-1-(3,3,3-trifluoropropanoyl)piperidin-3-yl)methanesulfonamide], for the setting “FLIPR TETRA, Fluo-4AM”, the response was half-maximal at 13 nM (EC50) and the maximum response (Emax) came to 101%.

Consider `CC(C)[C@H]1CC[C@@H](OC[C@H]2[C@@H](NS(C)(=O)=O)CCCN2C(=O)NCCO)CC1` (relative stereo) [Example 97, cis-N-(2-hydroxyethyl)-2-(((cis-4-isopropylcyclohexyl)oxy)methyl)-3-((methylsulfonyl)amino)piperidine-1-carboxamide], for which the Emax at 30 µM amounted to 108%. In addition, the midpoint of the response under setting [1], the EC50, lay at 4.5 nM.

On to `CCNC(=O)N1CCC[C@H](NS(C)(=O)=O)[C@@H]1CO[C@H]1C[C@H](c2ccccc2)C1` (relative stereo) [Example 130, cis-N-ethyl-3-((methylsulfonyl)amino)-2-(((trans-3-phenylcyclobutyl)oxy)methyl)piperidine-1-carboxamide], for which, where the note is “FLIPR TETRA, Fluo-4AM”, the midpoint of the response, the EC50, lay at 460 nM and the Emax turned out to be 96%.

As for `CCNC(=O)N1CCC[C@H](NS(C)(=O)=O)[C@@H]1CO[C@H]1CC[C@@H](c2ccc(F)c(F)c2)CC1` (relative stereo) [Example 144, cis-2-(((cis-4-(3,4-difluorophenyl)cyclohexyl)oxy)methyl)-N-ethyl-3-((methylsulfonyl)amino)piperidine-1-carboxamide], where the note is “FLIPR TETRA, Fluo-4AM”, the half-maximal effective concentration (EC50) was found to be 1 nM and the maximum response (Emax) came out at 104%.

In the case of `CS(=O)(=O)N[C@H]1CCCN(C(=O)C2(C#N)CC2)[C@H]1CO[C@H]1CC[C@@H](c2ccccc2)CC1` [Example 187, N-((2R,3S)-1-((1-cyanocyclopropyl)carbonyl)-2-(((cis-4-phenylcyclohexyl)oxy)methyl)piperidin-3-yl)methanesulfonamide], under “FLIPR TETRA, Fluo-4AM”, the half-maximal effective concentration (EC50) amounted to 370 nM and the Emax stood at 93%.

For `CC(=O)N1CCC[C@H](NS(C)(=O)=O)[C@@H]1CO[C@H]1CC[C@@H](c2cc(F)ccc2F)CC1` [Example 217, N-((2R,3S)-1-acetyl-2-(((cis-4-(2,5-difluorophenyl)cyclohexyl)oxy)methyl)piperidin-3-yl)methanesulfonamide], under “FLIPR TETRA, Fluo-4AM”, the 50% effective concentration (EC50) came out at 13 nM and the “Emax (%)” value stood at 110%.

`CC(C)[C@H]1CC[C@@H](OC[C@H]2[C@@H](NS(C)(=O)=O)CCCN2C(=O)CCS(C)(=O)=O)CC1` (relative stereo) [Example 74, N-(cis-2-(((cis-4-isopropylcyclohexyl)oxy)methyl)-1-(3-(methylsulfonyl)-propanoyl)piperidin-3-yl)methanesulfonamide]: the Emax at 30 µM came out at 89%. Also, the EC50 under setting [1] came to 750 nM.

Compound `COc1ccccc1[C@H]1CC[C@@H](OC[C@@H]2NCCC[C@@H]2NS(C)(=O)=O)CC1` [Example 27, N-((2R,3S)-2-(((cis-4-(2-methoxyphenyl)cyclohexyl)oxy)methyl)piperidin-3-yl)methanesulfonamide] had an Emax at 30 µM of 108%. Also, the EC50 under setting [1] amounted to 310 nM.

As to `CS(=O)(=O)N[C@H]1CCCN[C@H]1CO[C@H]1CC[C@@H](c2ccccc2C#N)CC1` (relative stereo) [Example 262, N-(cis-2-(((cis-4-(2-cyanophenyl)cyclohexyl)oxy)methyl)piperidin-3-yl)methanesulfonamide], where the note is “FLIPR TETRA, Fluo-4AM”, the EC50 came out at 2500 nM and the Emax worked out at 94%.

Turning to `CC(=O)OCC(=O)N1CCC[C@H](NS(C)(=O)=O)[C@@H]1CO[C@H]1CC[C@@H](C(C)C)CC1` (relative stereo) [Example 47, 2-(cis-2-(((cis-4-isopropylcyclohexyl)oxy)methyl)-3-((methylsulfonyl)amino)piperidin-1-yl)-2-oxoethyl acetate], the Emax at 30 µM was 101%.

`CC(C)[C@H]1CC[C@@H](OC[C@H]2[C@@H](NS(C)(=O)=O)CCCN2C(=O)NC2CC2)CC1` (relative stereo) [Example 99, cis-N-cyclopropyl-2-(((cis-4-isopropylcyclohexyl)oxy)methyl)-3-((methylsulfonyl)amino)piperidine-1-carboxamide]: the Emax at 30 µM turned out to be 112%. The compound further showed an EC50 under setting [1] of 13 nM.

As for `CS(=O)(=O)N[C@H]1CCCN(C(=O)OC2CC2)[C@H]1COC1CCN(c2ccccc2F)CC1` (relative stereo) [Example 290, cyclopropyl cis-2-(((1-(2-fluorophenyl)piperidin-4-yl)oxy)methyl)-3-((methylsulfonyl)amino)piperidine-1-carboxylate], under “FLIPR TETRA, Fluo-4AM”, the concentration giving a half-maximal response (EC50) was 3300 nM and the maximal effect (Emax) is 79%.

Turning to `CC(=O)C(=O)N1CCC[C@H](NS(C)(=O)=O)[C@@H]1CO[C@H]1CC[C@@H](c2ccccc2)CC1` (relative stereo) [Example 177, N-(cis-2-(((cis-4-phenylcyclohexyl)oxy)methyl)-1-pyruvoylpiperidin-3-yl)methanesulfonamide], where the note is “FLIPR TETRA, Fluo-4AM”, the response was half-maximal at 190 nM (EC50) and the Emax was 96%.

For the compound `CN(C)CC(=O)N1CCC[C@H](NS(C)(=O)=O)[C@@H]1CO[C@H]1CC[C@@H](c2ccccc2)CC1` (relative stereo) [Example 133, N-(cis-1-(N,N-dimethylglycyl)-2-(((cis-4-phenylcyclohexyl)oxy)methyl)piperidin-3-yl)methanesulfonamide], where the note is “FLIPR TETRA, Fluo-4AM”, the EC50 is 1000 nM and the Emax is 97%.

Take `CCc1ccccc1[C@H]1CC[C@@H](OC[C@@H]2NCCC[C@@H]2NS(C)(=O)=O)CC1` (relative stereo) [Example 311, N-(cis-2-(((cis-4-(2-ethylphenyl)cyclohexyl)oxy)methyl)-piperidin-3-yl)methanesulfonamide]: under “FLIPR TETRA, Fluo-4AM”, the half-maximal effective concentration (EC50) is 3200 nM and the Emax came out at 98%.

For the compound `COC(=O)N1CCC[C@H](NS(C)(=O)=O)[C@@H]1CO[C@H]1CC[C@]2(CC1)OCc1ccccc12` [Example 275, methyl cis-3-((methylsulfonyl)amino)-2-(((1s,4′s)-3H-spiro[2-benzofuran-1,1′-cyclohexan]-4′-yloxy)methyl)piperidine-1-carboxylate], where the note is “FLIPR TETRA, Fluo-4AM”, it took 3100 nM to reach a half-maximal effect (EC50) and the maximal response (Emax) came to 87%.

With `CS(=O)(=O)N[C@H]1CCCN(C(=O)C2CCCCC2)[C@H]1COC1CCN(c2ncccn2)CC1` (relative stereo) [Example 208, N-(cis-1-(cyclohexylcarbonyl)-2-(((1-(pyrimidin-2-yl)piperidin-4-yl)oxy)methyl)piperidin-3-yl)methanesulfonamide], under “FLIPR TETRA, Fluo-4AM”, a half-maximal response (EC50) required 940 nM and the Emax is 93%.

For the compound `CS(=O)(=O)N[C@H]1CCCN(C(=O)[C@H]2C[C@@H]2F)[C@H]1COC1CCN(c2ccccc2F)CC1` [Example 222, N-(cis-1-(((1R,2S)-2-fluorocyclopropyl)carbonyl)-2-(((1-(2-fluorophenyl)piperidin-4-yl)oxy)methyl)piperidin-3-yl)methanesulfonamide], where the note is “FLIPR TETRA, Fluo-4AM”, a half-maximal response (EC50) required 2100 nM and the Emax is 102%.

The values above are taken from patent publication US10287305B2, “Substituted piperidine compound and use thereof” (Takeda Pharmaceutical Company Limited, priority 2016, dated 2019).
